From patent publication US20070027175A1, “Antineoplastic activities of ellipticine and its derivatives” (priority 2005, published 2007)

Legend:
[1] = test system: DNA strand breakage; conditions: Multon et al., 1989; cited from earlier work
[2] = test system: RPMI 8226 cells; experiment: Drug resistance and cytotoxicity MTT assay, RPMI 8226; assay type: cell-based, human; conditions: Homo sapiens, 96 hours
Protocol: (§1) FIGS. 13A-13B show dose response of RPMI 8226 and 8226/Dox1V myeloma cells to EPED3 (FIG. 13A) or Dox (FIG. 13B). Cells were incubated for 96 hours with drug concentrations as indicated and analyzed by MTT assays; linear regression analysis was used to determine the IC50 for each drug (EPED3, FIG. 13A; Dox, FIG. 13B) and each cell line (RPMI8226, squares; 8226/Dox1V, circles). Data are presented as the mean of four independent experiments.
(§2) The 8226/Dox1V and its parental line, RPMI 8226, cells were plated in 96-well plates at 10,000 cells/well and incubated with serial dilutions of EPED3 or Dox, as previously described (Landowski et al., 1999). After 96 hours incubation at 37° C., MTT was added to each well at a final concentration of 20 μg/ml and incubated an additional 4 hours. Plates were centrifuged and the media replaced with 0.1 ml DMSO to solublize the formazan complex. Optical density was measured at 540 nm using a Bio-Tek microplate spectrophotometer. IC50 values were calculated by linear regression analysis (Origins® Software Technologies, Inc.) of the log-linear plot for percent survival versus log drug concentration.
In drug resistance studies, the efficacy of EPED3 with 8226/Dox1V cells and the parental line, RPMI 8226 cells was investigated. Both cell lines were treated with either EPED3 or Dox, and the MTT assays were used to assess cell growth. […]

[3] = test system: 12 myeloma cell lines (Ark, BW288, CAG, Delta47, DF15, JJN3, kms11, L363, opm2, RPMI8226, U266 and XG1); experiment: Comparative study with existing anti-myeloma drugs (CellTiter-Glo); assay type: cell-based, human; conditions: 0.2 μM; in 5 days
Excerpt: The results obtained from these controls are pooled together in the figure (●). The dose of each compound was set […].
Comparative study of NSC 338258 with existing anti-myeloma drugs Myeloma cell lines were exposed to NSC 338258 and existing anti myeloma drugs, Adriamycin® (Doxorubicin Hydrochloride) and Etoposide (VP-16-213) in ninety six well culture plates. The concentration of each compound was set […]. […] The cell growth was near zero in the following days (day 4 onwards; FIG. 6). It was also observed that 12 myeloma cell lines (Ark, BW288, CAG, Delta47, DF15, JJN3, kms11, L363, opm2, RPMI8226, U266 and XG1) responded to the same dosage (0.2 μM) of NSC 338258, VP-16-213 and Adriamycin in 5 days.

[4] = test system: 8226/Dox1V cells; experiment: Drug resistance and cytotoxicity MTT assay, 8226/Dox1V; assay type: cell-based, human
Protocol: as §1
The 8226/Dox1V cell line was established by chronic exposure to Dox in presence of P-glycoprotein inhibitor, verapamil and was characterized by reduced expression and activity of topo II (Futscher et al., 1993).
as §2
In drug resistance studies, the efficacy of EPED3 with 8226/Dox1V cells and the parental line, RPMI 8226 cells was investigated. Both cell lines were treated with either EPED3 or Dox, and the MTT assays were used to assess cell growth. Linear regression analysis of 96-hour dose-response curves was used to compare cytotoxicity of EPED3 in 8226/Dox1V and RPMI 8226 cell lines.

| SMILES | potency in DNA strand breakage, times less than m-AMSA [1] [times] | IC50 [2] [µM] | response of 12 myeloma cell lines [3] | IC50 ([4]; Homo sapiens, 8226/Dox1V, 96 hours) [µM] | resistance of 8226/Dox1V versus parental RPMI 8226 ([4]; ratio of IC50, 96 hours) [fold] |
| --- | --- | --- | --- | --- | --- |
| CCN(CC)CC[n+]1ccc2c(C)c3[nH]c4ccc(O)cc4c3c(C)c2c1 [Detalliptinium] | 50 | – | – | – | – |
| Cc1c2cc[n+](C)cc2c(C)c2c1[nH]c1ccc(O)cc12 [Celiptium] | 50 | – | – | – | – |
| COc1cccc2c1C(=O)c1c(O)c3c(c(O)c1C2=O)C[C@@](O)(C(=O)CO)C[C@@H]3O[C@H]1C[C@H](N)[C@H](O)[C@H](C)O1 [Dox, Doxorubicin, reference compound] | – | 0.04 | responded | 0.293 | 7.3 |
